Reference: ChEMBL document CHEMBL3885861, “Open TG-GATES”

Organism: Rattus norvegicus
Assay: Open TG-GATES - Regimen: Daily Repeat
Format: toxicity, organism-based, Sprague-Dawley
Set-up: regimen Daily Repeat, gender Male, age 6 weeks
Details: in vivo, po, 500 mg/kg, route gavage, dose level High; for APTT / Bas / Eos / Fbg / Hb / Ht / Lym / MCH / MCHC / MCV / Mono / Neu / PT / Plat / RBC / Ret / WBC: tissue Blood; for KIDNEY_L / KIDNEY_R / KIDNEY_TOTAL: tissue Kidney; for LIVER: tissue Liver; for A/G / ALP / ALT / AST / BUN / CRE / Ca / Cl / DBIL / GLC / IP / K / LDH / Na / PL / RALB / TBIL / TC / TG / TP / gamma-GTP: tissue Plasma

CN1C(=O)OC(C)(C)C1=O [TRIMETHADIONE]
TERMINAL_BW (72 h, time 3 day): 231.2 g
APTT (72 h, time 3 day): 19.5 s
Bas (72 h, time 3 day): 0.2%
Eos (72 h, time 3 day): 0.6%
Fbg (72 h, time 3 day): 280 mg/dL
Hb (72 h, time 3 day): 13.7 g/dL
Ht (72 h, time 3 day): 40.3%
Lym (72 h, time 3 day): 80%
MCH (72 h, time 3 day): 21.4 pg
MCHC (72 h, time 3 day): 34%
MCV (72 h, time 3 day): 63 fL
Mono (72 h, time 3 day): 3.2%
Neu (72 h, time 3 day): 15.6%
PT (72 h, time 3 day): 13.3 s
Plat (72 h, time 3 day): 127.8 x10_4/uL
RBC (72 h, time 3 day): 640 x10_4/ul
Ret (72 h, time 3 day): 5.1%
WBC (72 h, time 3 day): 107.7 x10_2/uL
KIDNEY_L (72 h, time 3 day): 1.1 g
KIDNEY_R (72 h, time 3 day): 1 g
KIDNEY_TOTAL (72 h, time 3 day): 2.1 g
LIVER (72 h, time 3 day): 13.3 g
A/G (72 h, time 3 day): 0.8
ALP (72 h, time 3 day): 1686.2 IU/L
ALT (72 h, time 3 day): 57.2 IU/L
AST (72 h, time 3 day): 106.6 IU/L
BUN (72 h, time 3 day): 16 mg/dL
CRE (72 h, time 3 day): 0.2 mg/dL
Ca (72 h, time 3 day): 11.2 mg/dL
Cl (72 h, time 3 day): 99.4 meq/L
DBIL (72 h, time 3 day): 0.006 mg/dL
GLC (72 h, time 3 day): 169.4 mg/dL
IP (72 h, time 3 day): 7.7 mg/dL
K (72 h, time 3 day): 4.5 meq/L
LDH (72 h, time 3 day): 114.8 IU/L
Na (72 h, time 3 day): 143 meq/L
PL (72 h, time 3 day): 160 mg/dL
RALB (72 h, time 3 day): 2.7 g/dL
TBIL (72 h, time 3 day): 0.04 mg/dL
TC (72 h, time 3 day): 88.4 mg/dL
TG (72 h, time 3 day): 70.6 mg/dL
TP (72 h, time 3 day): 5.8 g/dL
gamma-GTP (72 h, time 3 day): 1 IU/L
TERMINAL_BW ([…], time 7 day): 268.1 g
TERMINAL_BW ([…], time 14 day): 306.3 g
TERMINAL_BW ([…], time 28 day): 346.7 g
APTT ([…], time 7 day): 15.5 s
Bas ([…], time 7 day): 0.6%
Eos ([…], time 7 day): 0.8%
Fbg ([…], time 7 day): 272.6 mg/dL
Hb ([…], time 7 day): 13.4 g/dL
Ht ([…], time 7 day): 39%
Lym ([…], time 7 day): 70.4%
MCH ([…], time 7 day): 21.2 pg
MCHC ([…], time 7 day): 34.4%
MCV ([…], time 7 day): 61.8 fL
Mono ([…], time 7 day): 4.2%
Neu ([…], time 7 day): 24%
PT ([…], time 7 day): 14.8 s
Plat ([…], time 7 day): 109.8 x10_4/uL
RBC ([…], time 7 day): 630.8 x10_4/ul
Ret ([…], time 7 day): 4.4%
WBC ([…], time 7 day): 138.4 x10_2/uL
APTT ([…], time 14 day): 33.5 s
Bas ([…], time 14 day): 0.2%
Eos ([…], time 14 day): 0.4%
Fbg ([…], time 14 day): 282.6 mg/dL
Hb ([…], time 14 day): 14 g/dL
Ht ([…], time 14 day): 40.3%
Lym ([…], time 14 day): 77.2%
MCH ([…], time 14 day): 21.1 pg
MCHC ([…], time 14 day): 34.8%
MCV ([…], time 14 day): 60.7 fL
Mono ([…], time 14 day): 4.2%
Neu ([…], time 14 day): 17%
PT ([…], time 14 day): 14 s
Plat ([…], time 14 day): 116.4 x10_4/uL
RBC ([…], time 14 day): 664 x10_4/ul
Ret ([…], time 14 day): 4.5%
WBC ([…], time 14 day): 86.5 x10_2/uL
APTT ([…], time 28 day): 19.2 s
Bas ([…], time 28 day): 0.2%
Eos ([…], time 28 day): 0.8%
Fbg ([…], time 28 day): 288.6 mg/dL
Hb ([…], time 28 day): 15.4 g/dL
Ht ([…], time 28 day): 43.1%
Lym ([…], time 28 day): 68.2%
MCH ([…], time 28 day): 20.6 pg
MCHC ([…], time 28 day): 35.7%
MCV ([…], time 28 day): 57.9 fL
Mono ([…], time 28 day): 3.4%
Neu ([…], time 28 day): 27.2%
PT ([…], time 28 day): 14.5 s
Plat ([…], time 28 day): 103 x10_4/uL
RBC ([…], time 28 day): 744.8 x10_4/ul
Ret ([…], time 28 day): 2.3%
WBC ([…], time 28 day): 84.6 x10_2/uL
KIDNEY_L ([…], time 7 day): 1.2 g
KIDNEY_R ([…], time 7 day): 1.2 g
KIDNEY_TOTAL ([…], time 7 day): 2.4 g
KIDNEY_L ([…], time 14 day): 1.3 g
KIDNEY_R ([…], time 14 day): 1.3 g
KIDNEY_TOTAL ([…], time 14 day): 2.6 g
KIDNEY_L ([…], time 28 day): 1.5 g
KIDNEY_R ([…], time 28 day): 1.4 g
KIDNEY_TOTAL ([…], time 28 day): 2.9 g
LIVER ([…], time 7 day): 16.6 g
LIVER ([…], time 14 day): 17.4 g
LIVER ([…], time 28 day): 18.4 g
A/G ([…], time 7 day): 0.8
ALP ([…], time 7 day): 1535.2 IU/L
ALT ([…], time 7 day): 62.6 IU/L
AST ([…], time 7 day): 121 IU/L
BUN ([…], time 7 day): 16 mg/dL
CRE ([…], time 7 day): 0.2 mg/dL
Ca ([…], time 7 day): 10.9 mg/dL
Cl ([…], time 7 day): 97.2 meq/L
DBIL ([…], time 7 day): 0.016 mg/dL
GLC ([…], time 7 day): 179 mg/dL
IP ([…], time 7 day): 7.7 mg/dL
K ([…], time 7 day): 4 meq/L
LDH ([…], time 7 day): 81.4 IU/L
Na ([…], time 7 day): 146.2 meq/L
PL ([…], time 7 day): 166.2 mg/dL
RALB ([…], time 7 day): 2.8 g/dL
TBIL ([…], time 7 day): 0.042 mg/dL
TC ([…], time 7 day): 85 mg/dL
TG ([…], time 7 day): 96.8 mg/dL
TP ([…], time 7 day): 6.1 g/dL
gamma-GTP ([…], time 7 day): 1.6 IU/L
A/G ([…], time 14 day): 0.9
ALP ([…], time 14 day): 1426.4 IU/L
ALT ([…], time 14 day): 57 IU/L
AST ([…], time 14 day): 117.4 IU/L
BUN ([…], time 14 day): 16.8 mg/dL
CRE ([…], time 14 day): 0.2 mg/dL
Ca ([…], time 14 day): 10.7 mg/dL
Cl ([…], time 14 day): 100.6 meq/L
DBIL ([…], time 14 day): 0.01 mg/dL
GLC ([…], time 14 day): 181.6 mg/dL
IP ([…], time 14 day): 6.7 mg/dL
K ([…], time 14 day): 3.6 meq/L
LDH ([…], time 14 day): 127.6 IU/L
Na ([…], time 14 day): 146.2 meq/L
PL ([…], time 14 day): 169.6 mg/dL
RALB ([…], time 14 day): 3.1 g/dL
TBIL ([…], time 14 day): 0.034 mg/dL
TC ([…], time 14 day): 97.4 mg/dL
TG ([…], time 14 day): 59.2 mg/dL
TP ([…], time 14 day): 6.5 g/dL
gamma-GTP ([…], time 14 day): 1.6 IU/L
A/G ([…], time 28 day): 0.9
ALP ([…], time 28 day): 1105.4 IU/L
ALT ([…], time 28 day): 57.8 IU/L
AST ([…], time 28 day): 141.2 IU/L
BUN ([…], time 28 day): 15.6 mg/dL
CRE ([…], time 28 day): 0.3 mg/dL
Ca ([…], time 28 day): 10.4 mg/dL
Cl ([…], time 28 day): 97.8 meq/L
DBIL ([…], time 28 day): 0.006 mg/dL
GLC ([…], time 28 day): 176 mg/dL
IP ([…], time 28 day): 6.2 mg/dL
K ([…], time 28 day): 3.6 meq/L
LDH ([…], time 28 day): 83.2 IU/L
Na ([…], time 28 day): 145 meq/L
PL ([…], time 28 day): 155.2 mg/dL
RALB ([…], time 28 day): 3.1 g/dL
TBIL ([…], time 28 day): 0.032 mg/dL
TC ([…], time 28 day): 83.8 mg/dL
TG ([…], time 28 day): 122.8 mg/dL
TP ([…], time 28 day): 6.9 g/dL
gamma-GTP ([…], time 28 day): 1.4 IU/L
